From patent publication US12065421B2, “Inhibitors of oplophorus luciferase-derived bioluminescent complexes” (priority 2018, dated 2024)

Tests used:
[1] = test system: NanoBiT® HiBit/LgBit bioluminescent complex; assay: Inhibition of bioluminescent complex in lysed HEK293 cells expressing HiBiT fusion plus purified LgBiT (FIG. 3A); assay type: cell-based, Oplophorus gracilirostris; settings: HEK293 cells lysed with digitonin, purified LgBiT added, 2 hours, 10 μM furimazine
Description: FIGS. 3A-3B show the inhibition of bioluminescent complexes in cells. In FIG. 3A, HEK293 cells were transfected with DNA encoding an intracellular NanoBiT® HiBiT fusion protein, plated at 20,000 cells/100 μL growth medium, and incubated for 24 hours. Following 24 hours of expression, cells were lysed with 50 ug/mL (final) of digitonin in OptiMEM and treated with purified NanoBiT® LgBiT non-luminescent polypeptide and serial dilutions of HL-0005. After 2 hours of incubation at room temperature, furimazine was added (10 μM final concentration), and luminescence was measured on a GloMax®-Multi+ Plate Reader.

[2] = test system: NanoBiT® HiBit/LgBit bioluminescent complex; assay type: cell-based, Oplophorus gracilirostris; settings: HEK293 cells, optionally lysed with 50 ug/mL digitonin
Description: In FIG. 3B, HEK293 cells were transfected with DNA encoding an intracellular NanoBiT® HiBiT fusion protein and DNA encoding an intracellular NanoBiT® LgBiT fusion protein such that the fusion proteins were co-expressed within the cell. Transfected cells were plated at 20,000 cells/100 μL growth medium and incubated for 24 hours. Following 24 hours of expression, cells were optionally lysed with 50 ug/mL of digitonin in OptiMEM and treated with serial dilutions of HL-0005. After 2 hours of incubation at room temperature, furimazine was added (10 μM final concentration), and luminescence was measured on a GloMax® Multi+ Plate Reader.

NanoLuc = NanoLuc (Oplophorus gracilirostris, UniProt Q9GV45, A31E/A60N/A81I/F95D/I117V/K70R/L54V/L99Q/M102K/N193R/P142E/Q151K/Q38R/Q45L/V71I/Y165I); assay: NANOLUC® (Nluc) inhibitory activity (FIG. 2); assay type: biochemical; settings: Nluc 2 ng/ml in NanoGlo® buffer, 100 μM furimazine
NanoLuc, sequence (Q9GV45 28-196 with tags or gaps with the stated changes limits assumed): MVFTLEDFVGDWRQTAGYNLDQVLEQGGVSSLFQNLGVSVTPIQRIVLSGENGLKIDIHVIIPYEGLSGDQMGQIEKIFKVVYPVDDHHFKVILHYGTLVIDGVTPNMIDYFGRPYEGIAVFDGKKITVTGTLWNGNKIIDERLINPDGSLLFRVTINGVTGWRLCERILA
Description: FIG. 2 compares the NANOLUC® (Nluc) inhibitory activity of exemplary compounds of the present invention to PBI-6096, a known Nluc inhibitor. Inhibitors were diluted into CO2-independent media with 10% FBS. Nluc was diluted to 2 ng/ml into NanoGlo® buffer with 100 μM furimazine. Serial dilutions of the inhibitors were added to the NanoLuc/furimazine/NanoGlo® solution, and samples were immediately analyzed using a GloMax®-Multi+ Plate Reader.

Compound	inhibition of HiBit/LgBit bioluminescent complex in a cellular context [1]	cell permeability (IC50 values in lytic and non-lytic conditions compared) [2]	inhibition against NanoLuc (NanoLuc)
Cc1ccc(S(=O)(=O)Nc2ccccc2C(=O)Nc2cc3ccccc3s2)cc1 [HL-0005, N-(benzo[b]thiophen-2-yl)-2-((4-methylphenyl)sulfonamido)benzamide]	inhibition	mostly cell permeable	do not show any appreciable inhibition
N#Cc1c(NC(=O)c2ccccc2NS(=O)(=O)c2ccccc2)sc2c1CCC2 [HL-0010, N-(3-cyano-5,6-dihydro-4H-cyclopenta[b]thiophen-2-yl)-2-(phenylsulfonamido)benzamide]	–	–	do not show any appreciable inhibition
Cc1ccc(S(=O)(=O)Nc2ccccc2C(=O)Nc2sc3c(c2C#N)CCCC3)cc1 [JRW-1004, N-(3-cyano-4,5,6,7-tetrahydrobenzo[b]thiophen-2-yl)-2-((4-methylphenyl)sulfonamido)benzamide]	–	–	do not show any appreciable inhibition
